{"source": "patent US20220251036A1", "about": "“DIFLUOROHALOALLYLAMINE SULFONE DERIVATIVE INHIBITORS OF LYSYL OXIDASES, METHODS OF PREPARATION, AND USES THEREOF” (PHARMAXIS LTD., priority 2019, published 2022)", "key": {"[1]": {"experiment": "Chemical stability in topical formulation", "format": "physicochemical", "description": "The stability of a drug product formulation can have a significant impact on the length and cost of drug development, the nature of the studies required to support regulatory submissions, and, ultimately, safety and approvability. It is important to minimize the amount of impurities or degradation products that form over time due to interactions between the various ingredients in a formulation. This can be particularly important in compositions that are designed to increase skin permeability."}, "[2]": {"experiment": "Ultraviolet (UV) absorbance", "format": "physicochemical", "conditions": "from 290 nm to 680 nm, Shimadzu LCMS 2020", "description": "Minimising UV light absorption of drugs may avoid risk of phototoxicity and photoallergy. For induction of phototoxicity and/or photoallergy, a chemical must absorb light within the range of natural sunlight (290 to 700 nm). Therefore, compounds with no absorbance across the natural sunlight spectrum are advantageous."}}, "data": [{"molecule": "NC/C=C(\\F)C(F)(F)S(=O)(=O)c1ccccc1", "note": "[Compound 1, (Z)-3,4,4-trifluoro-4-(phenylsulfonyl)but-2-en-1-amine]", "values": [{"measurement": "% Area at 265 nm", "setting": "[1]; 6% in formulation 2, 2-8° C., 161 days", "result": 100.00, "unit": "% Area"}, {"measurement": "% Area at 265 nm", "setting": "[1]; 6% in formulation 2, 40° C., 161 days", "result": 99.66, "unit": "% Area"}, {"measurement": "% Area at 265 nm", "setting": "[1]; 6% in formulation 2, reference sample", "result": 100.00, "unit": "% Area"}, {"measurement": "% Area at 265 nm", "setting": "[1]; 6% in formulation 2, rt, 161 days", "result": 100.00, "unit": "% Area"}, {"measurement": "% Area at 265 nm", "setting": "[1]; 8% in formulation 2, 2-8° C., 161 days", "result": 99.91, "unit": "% Area"}, {"measurement": "% Area at 265 nm", "setting": "[1]; 8% in formulation 2, 40° C., 161 days", "result": 99.36, "unit": "% Area"}, {"measurement": "% Area at 265 nm", "setting": "[1]; 8% in formulation 2, reference sample", "result": 100.00, "unit": "% Area"}, {"measurement": "% Area at 265 nm", "setting": "[1]; 8% in formulation 2, rt, 161 days", "result": 99.74, "unit": "% Area"}, {"measurement": "compound peak percentage", "setting": "[1]; topical formulation 2, all the tested conditions", "result": "above 99.5%"}, {"measurement": "UV absorbance", "setting": "[2]", "result": "no absorbance"}]}]}
